Biological target: T1, ALAS2 (apoALAS2) (Homo sapiens, UniProt P22557)
T1 sequence (P22557 50-587): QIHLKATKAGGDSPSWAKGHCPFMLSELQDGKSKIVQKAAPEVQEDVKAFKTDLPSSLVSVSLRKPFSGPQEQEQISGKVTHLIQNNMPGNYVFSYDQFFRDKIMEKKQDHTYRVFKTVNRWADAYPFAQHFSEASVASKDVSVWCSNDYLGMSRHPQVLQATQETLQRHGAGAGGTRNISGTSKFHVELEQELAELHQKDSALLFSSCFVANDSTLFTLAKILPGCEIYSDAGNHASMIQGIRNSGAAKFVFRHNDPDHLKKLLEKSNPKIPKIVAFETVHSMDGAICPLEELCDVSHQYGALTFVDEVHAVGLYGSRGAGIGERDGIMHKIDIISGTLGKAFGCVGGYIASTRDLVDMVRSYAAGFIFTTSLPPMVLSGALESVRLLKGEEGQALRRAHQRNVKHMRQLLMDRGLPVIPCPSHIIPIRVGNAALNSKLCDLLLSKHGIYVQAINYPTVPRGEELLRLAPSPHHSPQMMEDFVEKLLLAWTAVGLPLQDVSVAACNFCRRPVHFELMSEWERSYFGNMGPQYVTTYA
Assay: PLP reactivation of apoenzyme, NAD-coupled ALAS assay
Format: biochemical
Conditions: apoALAS2 5 µM, PLP 50 µM, pH 7.6, 30 °C, 5 mM MgCl2, 130 mM KCl, 0.75 mg/ml BSA; covalent

PLP reactivation of apoenzyme, NAD-coupled ALAS assay: apoALAS2 activation by PLP in vitro.
SMILES: Cc1ncc(COP(=O)(O)O)c(C=O)c1O [pyridoxal phosphate]
